Here are results for five compounds from patent US20240319212A1, “METHOD OF MEASURING THE ENDOCYTIC VITAMIN D STATUS” (Immundiagnostik AG, priority 2018, published 2024).

Entries after “also recorded” stand apart in the source; their conditions may differ.

For one experiment, the target named is albumin (Homo sapiens, UniProt P02768). The following applies: cited from earlier work.
Experiment [1] addresses T1, DBP (Homo sapiens, UniProt P02774).
T1 sequence (P02774 17-474): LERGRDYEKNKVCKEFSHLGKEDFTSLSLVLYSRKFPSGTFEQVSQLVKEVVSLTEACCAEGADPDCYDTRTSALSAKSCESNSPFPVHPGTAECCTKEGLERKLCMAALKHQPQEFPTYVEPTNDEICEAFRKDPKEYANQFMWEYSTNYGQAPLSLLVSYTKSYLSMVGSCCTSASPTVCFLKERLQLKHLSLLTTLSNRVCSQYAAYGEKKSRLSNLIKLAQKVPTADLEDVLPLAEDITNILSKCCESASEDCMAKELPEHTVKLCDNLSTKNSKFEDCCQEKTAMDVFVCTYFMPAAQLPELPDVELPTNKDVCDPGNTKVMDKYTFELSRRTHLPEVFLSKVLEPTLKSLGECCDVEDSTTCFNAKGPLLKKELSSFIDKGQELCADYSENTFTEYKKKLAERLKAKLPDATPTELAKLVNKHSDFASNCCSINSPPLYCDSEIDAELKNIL
Conditions: cited from earlier work.

A further experiment addresses T2, megalin M2 fragment (Homo sapiens, UniProt P02774+P98164).
T2 construct: megalin signal peptide (M1-G25) (N, cleaved yes); made in house
T2 sequence (P98164 1024-1429 limits assumed): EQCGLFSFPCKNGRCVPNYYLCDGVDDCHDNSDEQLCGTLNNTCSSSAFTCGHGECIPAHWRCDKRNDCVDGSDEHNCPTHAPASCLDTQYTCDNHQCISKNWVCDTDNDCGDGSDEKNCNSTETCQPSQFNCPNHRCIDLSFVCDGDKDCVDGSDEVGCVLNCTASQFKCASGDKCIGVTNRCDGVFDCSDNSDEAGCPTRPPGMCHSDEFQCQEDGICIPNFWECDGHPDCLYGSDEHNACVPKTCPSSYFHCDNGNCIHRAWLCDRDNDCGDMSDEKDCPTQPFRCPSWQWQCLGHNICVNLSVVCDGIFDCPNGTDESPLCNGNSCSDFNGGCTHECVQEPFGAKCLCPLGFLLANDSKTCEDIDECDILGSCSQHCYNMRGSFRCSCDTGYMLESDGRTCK
T2 sequence (P02774 17-474): T1 sequence (P02774 17-474)
Description: Microscale thermophoresis of DBP:VD-metabolite bound by megalin M2 fragment. Type of experiment: binding. Conditions: M2 titrated; for Kd: labelled DBP 50 nM mixed with metabolite 37.8 nM, read-out: dissociation constant Kd, megalin M2 fragment to complex DBP:vitamin D metabolite. Here is the method: Purified megalin M2 was titrated in different concentrations. The dissociation constant Kd was calculated for every condition. The binding affinity was assessed by the dissociation constant Kd.
(§1) Microscale Thermophoresis assay. […] Parameters: laser power, 100%; LED, 80; laser on-time, 30 seconds; laser off-time, 5 seconds; temperature, 25° C. FNorm: normalized fluorescence; Kd: dissociation constant.

For experiment [2], the target named is T1, DBP. Description: Microscale thermophoresis of DBP and vitamin D metabolites. On the set-up: purchased Merck 345802. It is filed as binding. The following applies: for binding affinity of vitamin D metabolite to DBP, in words: MST, comparison between metabolites; for Kd: NT-647 labelled DBP, metabolite titrated, read-out: dissociation constant Kd, DBP to vitamin D metabolite. Here is the method: The binding properties of DBP and 25(OH)VD3, 25(OH)VD2, 24,25(OH)VD and 3C-epimer of 25(OH)D3 on the one hand and megalin on the other was further examined using microscale thermophoresis. […] The vitamin D metabolites were titrated with different concentrations. The dissociation constant Kd was calculated for every interaction partner. The binding affinity was assessed via the obtained dissociation constant Kd.
as §1

Sequence of albumin (P02768 25-609, species assumed): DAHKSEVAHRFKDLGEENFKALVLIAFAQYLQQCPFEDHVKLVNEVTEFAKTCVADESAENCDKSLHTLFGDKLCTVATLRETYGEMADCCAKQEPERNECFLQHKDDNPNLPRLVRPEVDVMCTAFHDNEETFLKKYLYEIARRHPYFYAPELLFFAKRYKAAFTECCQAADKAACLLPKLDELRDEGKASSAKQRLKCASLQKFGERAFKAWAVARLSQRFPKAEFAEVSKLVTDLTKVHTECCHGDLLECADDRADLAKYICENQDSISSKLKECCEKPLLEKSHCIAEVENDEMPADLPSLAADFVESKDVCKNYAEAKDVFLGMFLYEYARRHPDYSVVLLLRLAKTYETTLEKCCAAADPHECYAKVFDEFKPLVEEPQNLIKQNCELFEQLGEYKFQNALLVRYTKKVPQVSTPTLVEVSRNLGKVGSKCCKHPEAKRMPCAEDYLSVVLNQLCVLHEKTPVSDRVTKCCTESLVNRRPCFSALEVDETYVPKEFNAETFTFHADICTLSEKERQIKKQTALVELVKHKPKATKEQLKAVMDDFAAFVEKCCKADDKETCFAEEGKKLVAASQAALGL

Regarding 25-hydroxyvitamin D [25(OH)D], the “affinity Ka for albumin” value at albumin is 600000 M⁻¹. For the same compound, the “affinity Ka for DBP” value at DBP [1] was 7e+08 M⁻¹.

On to `C=C1CC[C@@H](O)C/C1=C/C=C1\CCC[C@]2(C)[C@@H]([C@H](C)CCCC(C)(C)O)CC[C@@H]12` [3C-epi25(OH)VD3, C3-epimer of 25-hydroxyvitamin D3], for which, on megalin M2 fragment (labelled DBP 50 nM mixed with metabolite), the “affinity of megalin M2 to DBP:metabolite complex, in words” value is recorded as “very high affinity”. The “binding affinity of vitamin D metabolite to DBP, in words” value (“binding affinity” below) on DBP [2] is recorded as “bound most strongly”; on DBP [2] (listed as 3C epimer of 25(OH)D3), “high binding affinity”.

With `C=C1CC[C@H](O)C/C1=C/C=C1\CCC[C@]2(C)[C@@H]([C@H](C)CCC(O)C(C)(C)O)CC[C@@H]12` (stereo partly drawn) [24,25(OH)VD, 24,25-dihydroxyvitamin D], on megalin M2 fragment, the Kd came to 171 nM. On DBP [2], the “binding affinity” value is listed as “slightly weaker; also recorded: marginally lower”.

Take `C=C1CC[C@H](O)C/C1=C/C=C1\CCC[C@]2(C)[C@@H]([C@H](C)/C=C/[C@H](C)C(C)(C)O)CC[C@@H]12` [25(OH)VD2, 25-hydroxyvitamin D2]: the Kd on megalin M2 fragment amounted to 160 nM; at DBP [2], 2.81 nM. For the same compound, at DBP [2], the “binding affinity” value is “comparable to Kd of DBP-VD3”.

Take `C=C1CC[C@H](O)C/C1=C/C=C1\CCC[C@]2(C)[C@@H]([C@H](C)CCCC(C)(C)O)CC[C@@H]12` [25(OH)VD3, 25-hydroxyvitamin D3]: the Kd at megalin M2 fragment is 33.7 nM; on DBP [2], 1.88 nM.
